Assay results taken from the supplement of paper PMC10307832.

Tests used:
Experiment in all cases: relative viability (nuclei count vs DMSO), 5 days (fraction); higher = more cells survive
[1] = compound: CCC1=CN=CN=C1N2CCN(CC2)CC3=NC4=C(N3)C=C(C=C4)C(F)(F)F + Cc1cc(Nc2cc(N3CCN(C)CC3)nc(Sc3ccc(NC(=O)C4CC4)cc3)n2)n[nH]1 [Tozasertib] (partner 0.1 µM)
Procedure, shortened: (§1)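 Values are medians from duplicate plates. Each reflects relative viability, defined as the nuclei count of treated wells over that of vehicle wells. Lung cancer cell lines in 1536-well plates were pin-tool dosed one day after seeding with one drug alone or with a fixed anchor-drug dose plus five library-drug doses (not always all listed) in √10 steps, then fixed, stained and imaged at 4× after 5 days.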

[2] = compound: CCC1=CN=CN=C1N2CCN(CC2)CC3=NC4=C(N3)C=C(C=C4)C(F)(F)F + O=C(c1cc(Cc2n[nH]c(=O)c3ccccc23)ccc1F)N1CCN(C(=O)C2CC2)CC1 [Olaparib] (partner 8 µM)
Procedure, shortened: as §1

[3] = compound: CCn1c(-c2nonc2N)nc2cnc(Oc3cccc(NC(=O)c4ccc(OCCN5CCOCC5)cc4)c3)cc21 + C[C@]1(O)C[C@@H](c2nc(-c3ccc4ccc(-c5ccccc5)nc4c3)c3c(N)nccn32)C1 [Linsitinib] (partner 1 µM)
Procedure, shortened: as §1

[4] = compound: CCn1c(-c2nonc2N)nc2cnc(Oc3cccc(NC(=O)c4ccc(OCCN5CCOCC5)cc4)c3)cc21 + N=C(N)NC(=N)NCCc1ccccc1 [Phenformin] (partner 250 µM)
Procedure, shortened: as §1

Row | Cell Line | relative viability ([1]; first compound 0.04 µM) | relative viability ([1]; first compound 0.1265 µM) | relative viability ([1]; first compound 0.4 µM) | relative viability ([1]; first compound 1.265 µM) | relative viability ([1]; first compound 4 µM) | relative viability ([2]; first compound 0.04 µM) | relative viability ([2]; first compound 0.1265 µM) | relative viability ([2]; first compound 0.4 µM) | relative viability ([2]; first compound 1.265 µM) | relative viability ([2]; first compound 4 µM) | relative viability ([3]; first compound 0.04 µM) | relative viability ([3]; first compound 0.1265 µM) | relative viability ([3]; first compound 0.4 µM) | relative viability ([3]; first compound 1.265 µM) | relative viability ([3]; first compound 4 µM) | relative viability ([4]; first compound 0.04 µM) | relative viability ([4]; first compound 0.1265 µM) | relative viability ([4]; first compound 0.4 µM) | relative viability ([4]; first compound 1.265 µM) | relative viability ([4]; first compound 4 µM)
1 | EPLC-272H | 0.257 | 0.225 | 0.262 | 0.327 | 0.332 | 0.687 | 0.693 | 0.835 | 0.617 | 0.695 | 1.35 | 1.12 | 1.14 | 1.1 | 1.18 | 0.369 | 0.306 | 0.216 | 0.245 | 0.229
2 | NCI-H1437 | 0.419 | 0.364 | 0.366 | 0.367 | 0.294 | 0.597 | 0.595 | 0.575 | 0.544 | 0.505 | 1.31 | 1 | 1.05 | 0.742 | 0.549 | 0.321 | 0.312 | 0.239 | 0.295 | 0.288
3 | EKVX | 0.477 | 0.367 | 0.346 |  | 0.445 | 0.877 | 0.734 | 0.89 | 0.684 | 0.862 | 1.42 | 1.02 | 1.08 | 0.813 | 0.976 | 0.275 | 0.242 | 0.136 | 0.227 | 0.236
4 | NCI-H1651 | 0.82 | 0.728 | 0.687 | 0.583 | 0.714 | 0.206 | 0.179 | 0.175 | 0.19 | 0.17 | 1.15 | 1.1 | 0.986 | 0.859 | 0.642 | 0.433 | 0.323 | 0.287 | 0.266 | 0.239
5 | HCC-15 | 0.444 | 0.357 | 0.381 | 0.449 | 0.391 | 0.688 | 0.727 | 0.685 | 0.762 | 0.668 | 1.15 | 0.88 | 0.901 | 0.825 | 0.883 | 0.532 | 0.362 | 0.269 |  | 0.364
6 | LCLC-103H | 0.536 | 0.504 | 0.488 | 0.463 | 0.398 | 0.798 | 0.733 | 0.743 | 0.718 | 0.707 | 1.12 | 1.07 | 0.902 | 1.05 | 1.03 | 0.421 | 0.286 | 0.182 | 0.216 | 0.222
7 | NCI-H2347 | 0.405 | 0.454 | 0.579 | 0.389 | 0.513 | 0.6 | 0.654 | 0.603 | 0.59 | 0.575 | 0.981 | 0.927 | 0.93 | 0.447 | 0.48 | 0.521 | 0.784 | 0.465 | 0.312 | 0.403
8 | NCI-H647 | 0.253 | 0.296 | 0.375 | 0.206 | 0.393 | 0.458 | 0.528 | 0.452 | 0.519 | 0.408 | 0.993 | 1 | 1.01 | 0.729 | 0.558 | 0.455 | 0.399 | 0.357 | 0.339 | 0.272
9 | NCI-H520 | 0.423 | 0.432 | 0.403 |  | 0.452 | 0.291 | 0.415 | 0.349 | 0.333 | 0.298 | 1.07 | 1.15 | 1.12 | 0.565 | 0.415 | 0.887 | 0.631 | 0.404 | 0.306 | 0.288
10 | HCC-366 | 0.138 | 0.148 | 0.131 | 0.143 | 0.0757 | 0.38 | 0.355 | 0.29 | 0.349 | 0.335 | 0.435 | 0.64 | 0.597 | 0.0751 | 0.0223 | 0.694 | 0.665 | 0.412 | 0.0542 | 0.0311
11 | NCI-H2085 | 0.815 | 0.71 | 0.794 | 0.698 | 0.633 | 0.717 | 0.692 | 0.728 | 0.777 | 0.72 | 1.02 | 0.9 | 0.756 | 0.792 | 0.683 | 0.787 | 0.676 | 0.596 | 0.551 | 0.559
12 | PC-3 [JPC-3] | 0.883 | 0.814 | 0.844 | 0.886 | 0.776 |  | 1.02 | 1.13 | 1.02 | 0.977 | 0.945 | 1 | 0.969 | 0.968 | 0.947 | 0.5 | 0.488 | 0.478 | 0.465 | 0.459
13 | HOP-62 | 0.43 | 0.362 | 0.39 | 0.381 | 0.39 | 0.377 | 0.293 | 0.269 | 0.458 | 0.363 | 1.22 | 1.27 | 0.808 | 0.595 | 1.02 | 0.739 | 0.686 | 0.55 | 0.357 | 0.368
14 | NCI-H2126 | 0.837 | 0.812 | 0.813 | 0.734 | 0.832 | 0.913 | 0.877 | 0.856 | 0.927 | 0.901 | 0.759 | 0.704 | 0.679 | 0.759 | 0.742 | 0.646 | 0.571 | 0.392 |  | 0.405
15 | NCI-H2087 | 0.26 | 0.243 | 0.221 | 0.182 | 0.146 | 0.791 | 0.542 | 0.623 | 0.522 | 0.423 |  | 0.682 | 0.762 | 0.747 | 0.828 | 0.598 | 0.458 | 0.474 | 0.432 | 0.372
16 | NCI-H1793 | 0.352 | 0.325 | 0.303 |  | 0.256 | 0.736 | 0.754 | 0.697 | 0.564 | 0.784 | 0.572 | 0.801 | 0.915 | 0.715 | 0.513 | 0.459 | 0.464 | 0.253 | 0.212 | 0.168
17 | RERF-LC-KJ | 0.517 | 0.503 | 0.464 | 0.459 | 0.398 | 0.975 | 0.95 | 0.954 | 0.849 | 0.885 | 1.06 | 0.976 | 0.877 | 0.721 | 0.637 | 0.487 | 0.42 | 0.379 | 0.289 | 0.324
